Test results as given in patent US5017489A (priority 1988, dated 1991).
“Also recorded” adds a separate entry of the source. Read-outs that look alike come from different tables or passages of the source. Values belong to the compound of their own block, whether it stands above or below them.

How the values were obtained:
[1] = target: T1, CTL serine esterase (BLT-serine esterase) in extract of murine CTL clone G4 (Mus musculus, UniProt P11032)
T1 sequence (P11032 29-260): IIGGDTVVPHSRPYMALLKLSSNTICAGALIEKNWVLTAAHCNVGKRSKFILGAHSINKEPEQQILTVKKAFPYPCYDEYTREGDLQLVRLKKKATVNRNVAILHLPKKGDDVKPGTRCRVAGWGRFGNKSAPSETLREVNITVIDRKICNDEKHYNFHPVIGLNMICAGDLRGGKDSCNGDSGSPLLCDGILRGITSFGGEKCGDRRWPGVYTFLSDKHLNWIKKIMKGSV

G4 cells = experiment: Toxicity of inhibitor for G4 cells (51Cr release, trypan blue recovery); format: cell-based, murine; conditions: PMSF at the concentrations shown (0.375-3 mM), 3% DMSO
[2] = system: human CTLs and target cells; experiment: Viability of human CTLs (trypan blue exclusion) and targets (51Cr release) after PMSF; conditions: 15 min in 6 mM PMSF
[3] = system: cytolytic activity of human CTLs; experiment: PMSF inhibition of cytolysis by human CTLs (2-h 51Cr-release assay); format: cell-based; conditions: 15 min in 6 mM PMSF
Description: ^51 Cr-release killing assays were performed as described; when measuring lectin-dependent cytolytic activity, Con A (Vector Laboratories,Inc., Burlingame, CA) was added to a final concentration of 10 μg/ml.
Various numbers of T cells were incubated for 15 min at 37° C. in K medium containing PMSF at 0, 2, 4, and 6 mM (PMSF was added in DMSO; the final concentration of DMSO in all instances was 1%). Cytotoxicity was assayed as above except that a 2 hour assay was used to minimize the effect of new protein synthesis.

[4] = system: lysis of P815 (H-2d) cells by cloned anti-Dd G4 cells
[5] = target: T1, CTL serine esterase (BLT-serine esterase) in extract of murine CTL clone G4; experiment: biochemical; conditions: read-out: Percent Inhibition of esterase activity

inhibition of murine CTL serine esterase activity (in words) ([1]; murine enzyme): not
Compound: Cc1ccc(S(=O)(=O)N[C@@H](Cc2ccccc2)C(=O)CCl)cc1 [TPCK, N-tosyl-L-phenylalanine chloromethyl ketone]

Compound: O=S(=O)(F)Cc1ccccc1 [PMSF, phenylmethylsulfonyl fluoride]
added toxicity for G4 cells (51Cr release or reduced recovery of viable cells) (G4 cells): no added toxicity | viability of CTLs (trypan blue exclusion) and targets (release of 51Cr) [2]: not affecting the viability | reduction of cytotoxicity [3]: approximately 75% | Percent Inhibition of esterase activity [1]: 97.2 | inhibition of murine CTL serine esterase activity (in words) [1]: blocked completely; also recorded: inhibited; also recorded: completely inhibitable | inhibition of lysis of P815 cells by G4 cells (in words) ([4]; nontoxic concentrations, G4 preincubated 30 minutes at 37° C.): clearly inhibits lysis

Compound: α2 macroglobulin
inhibition of serine esterase (in words) [1]: not inhibited

Compound: aprotinin
inhibition in vitro of purified BLT serine esterase (in words) [1]: potent inhibitor | inhibition of serine esterase (in words) [1]: essentially totally inhibited | inhibition of CTL-mediated lysis (in words) [4]: does not inhibit | inhibition of cytotoxicity (in words) [4]: appears to inhibit cytotoxicity

Compound: Cc1ccc(S(=O)(=O)N[C@@H](CCCCN)C(=O)CCl)cc1 [TLCK, N-α-tosyl lysyl chloromethyl ketone]
inhibition at 500 µM [5]: 4.6% | inhibition of murine CTL serine esterase activity (in words) [1]: not and not, however, inhibited | inhibition of serine esterase (in words) [1]: not inhibited
